PubChem BioAssay AID1845203 (Molecular Pharmacology Branch, DTP, NCI, 2023)

Test system: G-401 tumor spheroids, viability % test/control
Assay: Anticancer human tumor G-401 cell line growth inhibition;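 further: spheroids exposed to compound for 7 days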;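 on viability, T/C: 100% = DMSO vehicle-treated spheroids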
Conditions: spheroids with HUVEC and MSC; for IC50: curve of first compound; for viability, T/C: stronger effect = lower value
How it was run: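 Complex spheroids of malignant cells with endothelial cells and mesenchymal stem cells; agents alone or combined, from near clinical Cmax (or 10 microM if unknown) down in half-log steps, 0.25% DMSO final.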

SMILES: CC1COCCN1c1cc(-c2ccnn2C)c2ccnc(-c3ccn[nH]3)c2n1 (stereo not given) + CC[C@@]1(O)C(=O)OCc2c1cc1n(c2=O)Cc2cc3c(CN(C)C)c(O)ccc3nc2-1
- IC50 (second compound 0.003 µM): < 31.6 nM
- IC50 (second compound 0.00949 µM): < 31.6 nM
- IC50 (second compound 0.03 µM): < 31.6 nM
- IC50 (second compound 0.0949 µM): < 31.6 nM
- IC50 (second compound 0.3 µM): < 31.6 nM
- viability, T/C (second compound 0.003 µM, first compound 0.0316 µM): 38.2%
- viability, T/C (second compound 0.003 µM, first compound 0.1 µM): 17.3%
- viability, T/C (second compound 0.003 µM, first compound 0.316 µM): 13.4%
- viability, T/C (second compound 0.003 µM, first compound 1 µM): 13.5%
- viability, T/C (second compound 0.003 µM, first compound 3.16 µM): 15%
- viability, T/C (second compound 0.003 µM, first compound 10 µM): 15.1%
- viability, T/C (second compound 0.00949 µM, first compound 0.0316 µM): 16.6%
- viability, T/C (second compound 0.00949 µM, first compound 0.1 µM): 11.1%
- viability, T/C (second compound 0.00949 µM, first compound 0.316 µM): 9.94%
- viability, T/C (second compound 0.00949 µM, first compound 1 µM): 10.2%
- viability, T/C (second compound 0.00949 µM, first compound 3.16 µM): 12.7%
- viability, T/C (second compound 0.00949 µM, first compound 10 µM): 14.6%
- viability, T/C (second compound 0.03 µM, first compound 0.0316 µM): 12.9%
- viability, T/C (second compound 0.03 µM, first compound 0.1 µM): 11.1%
- viability, T/C (second compound 0.03 µM, first compound 0.316 µM): 10.6%
- viability, T/C (second compound 0.03 µM, first compound 1 µM): 10%
- viability, T/C (second compound 0.03 µM, first compound 3.16 µM): 11.1%
- viability, T/C (second compound 0.03 µM, first compound 10 µM): 12.1%
- viability, T/C (second compound 0.0949 µM, first compound 0.0316 µM): 10.7%
- viability, T/C (second compound 0.0949 µM, first compound 0.1 µM): 8.92%
- viability, T/C (second compound 0.0949 µM, first compound 0.316 µM): 8.64%
- viability, T/C (second compound 0.0949 µM, first compound 1 µM): 8.17%
- viability, T/C (second compound 0.0949 µM, first compound 3.16 µM): 8.68%
- viability, T/C (second compound 0.0949 µM, first compound 10 µM): 9.11%
- viability, T/C (second compound 0.3 µM, first compound 0.0316 µM): 6.09%
- viability, T/C (second compound 0.3 µM, first compound 0.1 µM): 5.5%
- viability, T/C (second compound 0.3 µM, first compound 0.316 µM): 5.49%
- viability, T/C (second compound 0.3 µM, first compound 1 µM): 4.45%
- viability, T/C (second compound 0.3 µM, first compound 3.16 µM): 4.16%
- viability, T/C (second compound 0.3 µM, first compound 10 µM): 3.75%

SMILES: O=C(c1cc(Cc2n[nH]c(=O)c3ccccc23)ccc1F)N1CCN(C(=O)C2CC2)CC1 + Cn1nnc2c(C(N)=O)ncn2c1=O
- IC50 (second compound 1 µM): 12200 nM
- IC50 (second compound 3.16 µM): 8360 nM
- IC50 (second compound 10 µM): 5160 nM
- IC50 (second compound 31.6 µM): 2120 nM
- IC50 (second compound 100 µM): 402 nM
- viability, T/C (second compound 1 µM, first compound 0.0949 µM): 102%
- viability, T/C (second compound 1 µM, first compound 0.3 µM): 102%
- viability, T/C (second compound 1 µM, first compound 0.949 µM): 93.3%
- viability, T/C (second compound 1 µM, first compound 3 µM): 83%
- viability, T/C (second compound 1 µM, first compound 9.49 µM): 54%
- viability, T/C (second compound 1 µM, first compound 30 µM): 32.9%
- viability, T/C (second compound 3.16 µM, first compound 0.0949 µM): 94.4%
- viability, T/C (second compound 3.16 µM, first compound 0.3 µM): 96.5%
- viability, T/C (second compound 3.16 µM, first compound 0.949 µM): 96.7%
- viability, T/C (second compound 3.16 µM, first compound 3 µM): 80.4%
- viability, T/C (second compound 3.16 µM, first compound 9.49 µM): 46.6%
- viability, T/C (second compound 3.16 µM, first compound 30 µM): 28.3%
- viability, T/C (second compound 10 µM, first compound 0.0949 µM): 91.2%
- viability, T/C (second compound 10 µM, first compound 0.3 µM): 95%
- viability, T/C (second compound 10 µM, first compound 0.949 µM): 94.5%
- viability, T/C (second compound 10 µM, first compound 3 µM): 66.7%
- viability, T/C (second compound 10 µM, first compound 9.49 µM): 31.3%
- viability, T/C (second compound 10 µM, first compound 30 µM): 20.4%
- viability, T/C (second compound 31.6 µM, first compound 0.0949 µM): 91.6%
- viability, T/C (second compound 31.6 µM, first compound 0.3 µM): 83.2%
- viability, T/C (second compound 31.6 µM, first compound 0.949 µM): 79%
- viability, T/C (second compound 31.6 µM, first compound 3 µM): 37.4%
- viability, T/C (second compound 31.6 µM, first compound 9.49 µM): 19.5%
- viability, T/C (second compound 31.6 µM, first compound 30 µM): 15.4%
- viability, T/C (second compound 100 µM, first compound 0.0949 µM): 65.8%
- viability, T/C (second compound 100 µM, first compound 0.3 µM): 58.1%
- viability, T/C (second compound 100 µM, first compound 0.949 µM): 26.8%
- viability, T/C (second compound 100 µM, first compound 3 µM): 17.9%
- viability, T/C (second compound 100 µM, first compound 9.49 µM): 14.3%
- viability, T/C (second compound 100 µM, first compound 30 µM): 13.3%
